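Results reflect a 48-hour exposure of cells in 96-well plates to compound at five concentrations. TGI denotes the concentration required for complete inhibition of growth.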
The compounds below were run on NCI-H226 lung (assay: DTP human tumour cell line panel, 48 h).

Compound	TGI [µM]
O=C(Cc1nc2ccccc2o1)C(=O)Nc1ccccc1C(F)(F)F	> 100
CN(C)CCNc1ccc2nnn3c4ccccc4c(=O)c1c23	5.28
COC1=CC(=Nc2c(Cl)cc(Cl)cc2OC(=O)c2ccc([N+](=O)[O-])cc2)C=C(OC)C1=O	28.7

What follows are compounds tested on NCI-H23 lung (assay: DTP human tumour cell line panel, 48 h).

Compound	TGI [µM]
O=C(Cc1nc2ccccc2o1)C(=O)Nc1ccccc1C(F)(F)F	> 100
CN(C)CCNc1ccc2nnn3c4ccccc4c(=O)c1c23	11.6
COC1=CC(=Nc2c(Cl)cc(Cl)cc2OC(=O)c2ccc([N+](=O)[O-])cc2)C=C(OC)C1=O	22.9
CCOC(=O)C(C)c1c(C(=O)c2ccc(C)nc2)c2ccccc2n1C (configuration not stated)	> 100

What follows are compounds tested on NCI-H460 lung (assay: DTP human tumour cell line panel, 48 h).

Compound	TGI [µM]
O=C(Cc1nc2ccccc2o1)C(=O)Nc1ccccc1C(F)(F)F	> 100
CN(C)CCNc1ccc2nnn3c4ccccc4c(=O)c1c23	7.16
COC1=CC(=Nc2c(Cl)cc(Cl)cc2OC(=O)c2ccc([N+](=O)[O-])cc2)C=C(OC)C1=O	31.3
CCOC(=O)C(C)c1c(C(=O)c2ccc(C)nc2)c2ccccc2n1C (configuration not stated)	> 100

These compounds were tested on NCI-H522 lung (assay: DTP human tumour cell line panel, 48 h).

Compound	TGI [µM]
O=C(Cc1nc2ccccc2o1)C(=O)Nc1ccccc1C(F)(F)F	> 100
CN(C)CCNc1ccc2nnn3c4ccccc4c(=O)c1c23	8.31
COC1=CC(=Nc2c(Cl)cc(Cl)cc2OC(=O)c2ccc([N+](=O)[O-])cc2)C=C(OC)C1=O	23.6
CCOC(=O)C(C)c1c(C(=O)c2ccc(C)nc2)c2ccccc2n1C (configuration not stated)	> 100

These compounds were tested on NCI/ADR-RES ovarian (assay: DTP human tumour cell line panel, 48 h).

Compound	TGI [µM]
CN(C)CCNc1ccc2nnn3c4ccccc4c(=O)c1c23	9.82

Each compound was assayed on OVCAR-3 ovarian (assay: DTP human tumour cell line panel, 48 h).

Compound	TGI [µM]
O=C(Cc1nc2ccccc2o1)C(=O)Nc1ccccc1C(F)(F)F	> 100
CN(C)CCNc1ccc2nnn3c4ccccc4c(=O)c1c23	12.8
COC1=CC(=Nc2c(Cl)cc(Cl)cc2OC(=O)c2ccc([N+](=O)[O-])cc2)C=C(OC)C1=O	20.9
CCOC(=O)C(C)c1c(C(=O)c2ccc(C)nc2)c2ccccc2n1C (configuration not stated)	> 100

What follows are compounds tested on OVCAR-4 ovarian (assay: DTP human tumour cell line panel, 48 h).

Compound	TGI [µM]
O=C(Cc1nc2ccccc2o1)C(=O)Nc1ccccc1C(F)(F)F	> 100
CN(C)CCNc1ccc2nnn3c4ccccc4c(=O)c1c23	9.44
COC1=CC(=Nc2c(Cl)cc(Cl)cc2OC(=O)c2ccc([N+](=O)[O-])cc2)C=C(OC)C1=O	21.9
CCOC(=O)C(C)c1c(C(=O)c2ccc(C)nc2)c2ccccc2n1C (configuration not stated)	> 100

Each compound was assayed on OVCAR-5 ovarian (assay: DTP human tumour cell line panel, 48 h).

Compound	TGI [µM]
O=C(Cc1nc2ccccc2o1)C(=O)Nc1ccccc1C(F)(F)F	> 100
CN(C)CCNc1ccc2nnn3c4ccccc4c(=O)c1c23	11.4
COC1=CC(=Nc2c(Cl)cc(Cl)cc2OC(=O)c2ccc([N+](=O)[O-])cc2)C=C(OC)C1=O	33.7
CCOC(=O)C(C)c1c(C(=O)c2ccc(C)nc2)c2ccccc2n1C (configuration not stated)	> 100

What follows are compounds tested on OVCAR-8 ovarian (assay: DTP human tumour cell line panel, 48 h).

Compound	TGI [µM]
O=C(Cc1nc2ccccc2o1)C(=O)Nc1ccccc1C(F)(F)F	> 100
CN(C)CCNc1ccc2nnn3c4ccccc4c(=O)c1c23	9.91
COC1=CC(=Nc2c(Cl)cc(Cl)cc2OC(=O)c2ccc([N+](=O)[O-])cc2)C=C(OC)C1=O	20.2
CCOC(=O)C(C)c1c(C(=O)c2ccc(C)nc2)c2ccccc2n1C (configuration not stated)	> 100

Each compound was assayed on PC-3 prostate (assay: DTP human tumour cell line panel, 48 h).

Compound	TGI [µM]
CN(C)CCNc1ccc2nnn3c4ccccc4c(=O)c1c23	7.79

What follows are compounds tested on RPMI-8226 leukemia (assay: DTP human tumour cell line panel, 48 h).

Compound	TGI [µM]
O=C(Cc1nc2ccccc2o1)C(=O)Nc1ccccc1C(F)(F)F	> 100
CN(C)CCNc1ccc2nnn3c4ccccc4c(=O)c1c23	23.9
COC1=CC(=Nc2c(Cl)cc(Cl)cc2OC(=O)c2ccc([N+](=O)[O-])cc2)C=C(OC)C1=O	> 39.1
CCOC(=O)C(C)c1c(C(=O)c2ccc(C)nc2)c2ccccc2n1C (configuration not stated)	> 100

These compounds were tested on RXF 393 renal (assay: DTP human tumour cell line panel, 48 h).

Compound	TGI [µM]
O=C(Cc1nc2ccccc2o1)C(=O)Nc1ccccc1C(F)(F)F	> 100
CN(C)CCNc1ccc2nnn3c4ccccc4c(=O)c1c23	16.6
COC1=CC(=Nc2c(Cl)cc(Cl)cc2OC(=O)c2ccc([N+](=O)[O-])cc2)C=C(OC)C1=O	24.6
CCOC(=O)C(C)c1c(C(=O)c2ccc(C)nc2)c2ccccc2n1C (configuration not stated)	> 100

The compounds below were run on RXF-631 renal (assay: DTP human tumour cell line panel, 48 h).

Compound	TGI [µM]
O=C(Cc1nc2ccccc2o1)C(=O)Nc1ccccc1C(F)(F)F	> 100
CN(C)CCNc1ccc2nnn3c4ccccc4c(=O)c1c23	10.3
COC1=CC(=Nc2c(Cl)cc(Cl)cc2OC(=O)c2ccc([N+](=O)[O-])cc2)C=C(OC)C1=O	11.1
CCOC(=O)C(C)c1c(C(=O)c2ccc(C)nc2)c2ccccc2n1C (configuration not stated)	> 100

These compounds were tested on SF-268 CNS (assay: DTP human tumour cell line panel, 48 h).

Compound	TGI [µM]
O=C(Cc1nc2ccccc2o1)C(=O)Nc1ccccc1C(F)(F)F	> 100
CN(C)CCNc1ccc2nnn3c4ccccc4c(=O)c1c23	18.8
COC1=CC(=Nc2c(Cl)cc(Cl)cc2OC(=O)c2ccc([N+](=O)[O-])cc2)C=C(OC)C1=O	23.2
CCOC(=O)C(C)c1c(C(=O)c2ccc(C)nc2)c2ccccc2n1C (configuration not stated)	> 100

The compounds below were run on SF-295 CNS (assay: DTP human tumour cell line panel, 48 h).

Compound	TGI [µM]
O=C(Cc1nc2ccccc2o1)C(=O)Nc1ccccc1C(F)(F)F	> 100
CN(C)CCNc1ccc2nnn3c4ccccc4c(=O)c1c23	13.8
COC1=CC(=Nc2c(Cl)cc(Cl)cc2OC(=O)c2ccc([N+](=O)[O-])cc2)C=C(OC)C1=O	23.7
CCOC(=O)C(C)c1c(C(=O)c2ccc(C)nc2)c2ccccc2n1C (configuration not stated)	> 100

The compounds below were run on SF-539 CNS (assay: DTP human tumour cell line panel, 48 h).

Compound	TGI [µM]
O=C(Cc1nc2ccccc2o1)C(=O)Nc1ccccc1C(F)(F)F	> 100
CN(C)CCNc1ccc2nnn3c4ccccc4c(=O)c1c23	15.6
COC1=CC(=Nc2c(Cl)cc(Cl)cc2OC(=O)c2ccc([N+](=O)[O-])cc2)C=C(OC)C1=O	23.4

These compounds were tested on SK-MEL-2 melanoma (assay: DTP human tumour cell line panel, 48 h).

Compound	TGI [µM]
O=C(Cc1nc2ccccc2o1)C(=O)Nc1ccccc1C(F)(F)F	> 100
